{"source": "paper PMC6817585", "about": "“Simultaneous Determination of Five Alkaloids by HPLC-MS/MS Combined With Micro-SPE in Rat Plasma and Its Application to Pharmacokinetics After Oral Administration of Lotus Leaf Extract” (Frontiers in Pharmacology, 2019)", "key": {"[1]": {"test": "Pharmacokinetics of five alkaloids in rat plasma after oral administration of lotus leaf extract", "type": "in vivo, Male Sprague-Dawley rats", "conditions": "rat, in vivo, po", "procedure": "All analyses were performed on Agilent 1200 HPLC system (Agilent Corporation, USA) and API 3200 triple-quadrupole mass spectrometer (Concord, Ontario, Canada) in multiple-reaction monitoring (MRM) with positive ionization mode. Acetonitrile (A) and formic acid aqueous solution (B) (0.1%, v/v) is used to separate the analytes on Eclipse plus C18 column (4.6 mm × 100 mm, 1.8 µm) with a guard C18 column (2.1 mm × 12.5 mm, 5 µm). The gradient of elution is as follows: 5%–60% A at 0 to 4 min, 60%–70% A at 4 to 5 min, 70%–93% A at 5 to 7 min, 93%–94% A at 7 to 11 min, 94%–5% A at 11 to 12 min, and 5%–5% A at 12 to 17 min. The flow rate and injection volume are 0.3 ml·min^-1 and 5 µl, respectively. The main parameters of ion source including the ion spray voltage, the curtain gas, and temperature are set at 5000 V, 35 psi, and 450°C, respectively.\nThe real plasma sample (100 µl) and IS solution (10 µl) were vortex-mixed for 1 min. The sample was carried out with the SPE column (Cleanert PEP-2, 40–60 µm, 60 Å, 10 mg/1 ml; Phenomenex, Torrance, CA, USA). First, SPE columns were activated by 50% methanol in water (1 ml) and 0.1% formic acid in water (1 ml) and were used to activate the SPE column in sequence. Second, columns were washed with 200 µl methanol (20%, v/v) and eluted with acetonitrile (400 µl) after the plasma samples were added. Finally, the eluent was centrifuged for 10 min with 14,000 rpm. Then final solutions were injected into the HPLC-MS/MS and analyzed.\nThe pharmacokinetic study was conducted in accordance with the Guidelines for the Care and Use of Laboratory Animals by the US National Institutes of Health and approved by the Animal Ethics Committee of Tianjin University of Traditional Chinese Medicine (permit number: TCM-LAEC2019022, Tianjin, China),. Male Sprague-Dawley rats (240–260 g) were fed in the animal laboratory of the Tianjin University of Traditional Chinese Medicine under the standard conditions. These rats were allowed free to get standard laboratory food and water and conformed for 1 week until 12 h before experiment. These rats (n = 10) were fasted, although they were still given water for 12 h, before the oral administration of lotus leaf extract. […] The plasma samples were centrifuged in 10 min at 7000 rpm and kept at −20°C until analyzed.\nAll of the pharmacokinetic parameters were calculated by one compartment model with DAS 1.0 software (Medical College of Wannan). The maximum drug concentration (Cmax) and the time to reach Cmax (Tmax) were acquired from observed concentration–time profile for oral administration in plasma. All data were shown as mean ± SD."}, "[2]": {"test": "Stability of analytes in rat plasma QC samples (auto-sampler, freeze-thaw, short-time, long-term)", "type": "in vitro ADME", "conditions": "rat, plasma", "procedure": "(§1) The stabilities (including auto-sampler, freeze–thaw cycles, and short-time and long-term stability) of all analytes were obtained by testing QC samples of four concentrations. Moreover, the stabilities for stock and working solution were assessed with mixed standard substance (100 ng·ml^−1) and the QC sample solutions of four concentration levels, respectively. These solutions were achieved by diluting stock solutions kept at 4°C for 2 weeks. For IS, the evaluated procedures of two stabilities were same as the five alkaloids."}, "[3]": {"test": "Stability of stock and working solutions", "type": "physicochemical", "conditions": "working solution, n = 6", "procedure": "as §1"}}, "data": [{"molecule": "COc1cc2c3c(c1OC)C1(C=CC(=O)C=C1)C[C@H]3N(C)CC2", "note": "[Pronuciferine, pronuciferine]", "values": [{"measurement": "AUC", "setting": "[1]; male, Sprague-Dawley, 2.4 g/kg", "result": "2030 ± 717", "unit": "ng·h/mL"}, {"measurement": "AUC(0-inf)", "setting": "[1]; male, Sprague-Dawley, 2.4 g/kg", "result": "2100 ± 704", "unit": "ng·h/mL"}, {"measurement": "Cmax", "setting": "[1]; male, Sprague-Dawley, 2.4 g/kg", "result": "210 ± 87", "unit": "ng/mL"}, {"measurement": "MRT", "setting": "[1]; male, Sprague-Dawley, 2.4 g/kg", "result": "7.43 ± 1.18", "unit": "h"}, {"measurement": "MRT inf", "setting": "[1]; male, Sprague-Dawley, 2.4 g/kg", "result": "8.36 ± 1.98", "unit": "h"}, {"measurement": "Tmax", "setting": "[1]; male, Sprague-Dawley, 2.4 g/kg", "result": "4.9 ± 1.37", "unit": "h"}, {"measurement": "half-life", "setting": "[1]; male, Sprague-Dawley, 2.4 g/kg", "result": "266 ± 113", "unit": "min"}, {"measurement": "Absorption after orally administrating the lotus leaf extract (in words)", "setting": "[1]", "result": "slow absorption"}, {"measurement": "Plasma exposure (in words)", "setting": "[1]", "result": "abundant plasma exposure"}, {"measurement": "AUCs(0–24 h)", "setting": "[1]; 2.4 g/kg", "result": "2030 ± 716", "unit": "ng·h/mL"}, {"measurement": "Remain, freeze thaw cycles", "setting": "[2]", "result": 81.9, "unit": "%"}, {"measurement": "Remain, freeze thaw cycles", "setting": "[2]; 2 ng/ml", "result": 93.3, "unit": "%"}, {"measurement": "Remain, freeze thaw cycles", "setting": "[2]; 100 ng/ml", "result": 85.5, "unit": "%"}, {"measurement": "Remain, freeze thaw cycles", "setting": "[2]; 500 ng/ml", "result": 87.2, "unit": "%"}, {"measurement": "Remain, −80°C for 1 month", "setting": "[2]", "result": 99.2, "unit": "%"}, {"measurement": "Remain, −80°C for 1 month", "setting": "[2]; 2 ng/ml", "result": 99.0, "unit": "%"}, {"measurement": "Remain, −80°C for 1 month", "setting": "[2]; 100 ng/ml", "result": 93.9, "unit": "%"}, {"measurement": "Remain, −80°C for 1 month", "setting": "[2]; 500 ng/ml", "result": 90.4, "unit": "%"}, {"measurement": "Remain, autosampler for 24 h", "setting": "[2]", "result": 85.5, "unit": "%"}, {"measurement": "Remain, room temperature for 24 h", "setting": "[2]", "result": 89.2, "unit": "%"}, {"measurement": "Remain, autosampler for 24 h", "setting": "[2]; 2 ng/ml", "result": 88.3, "unit": "%"}, {"measurement": "Remain, room temperature for 24 h", "setting": "[2]; 2 ng/ml", "result": 106, "unit": "%"}, {"measurement": "Remain, autosampler for 24 h", "setting": "[2]; 100 ng/ml", "result": 92.6, "unit": "%"}, {"measurement": "Remain, room temperature for 24 h", "setting": "[2]; 100 ng/ml", "result": 98.9, "unit": "%"}, {"measurement": "Remain, autosampler for 24 h", "setting": "[2]; 500 ng/ml", "result": 87.5, "unit": "%"}, {"measurement": "Remain, room temperature for 24 h", "setting": "[2]; 500 ng/ml", "result": 87.1, "unit": "%"}, {"measurement": "Remain, working solution", "setting": "[3]; 2 ng/ml", "result": 92.9, "unit": "%"}, {"measurement": "Remain, working solution", "setting": "[3]; 100 ng/ml", "result": 99.9, "unit": "%"}, {"measurement": "Remain, working solution", "setting": "[3]; 500 ng/ml", "result": 105, "unit": "%"}, {"measurement": "Remain, working solution", "setting": "[3]; concentration LLOQ, from stock kept at 4°C for 2 weeks", "result": 99.3, "unit": "%"}]}]}
